Data reported in patent publication US20220127607A1, “METHODS AND MATERIALS FOR ACTIVATING AN INTERNAL RIBOSOME ENTRY SITE IN EXON 5 OF THE DMD GENE” (RESEARCH INSTITUTE AT NATIONWIDE CHILDREN'S HOSPITAL, priority 2014, published 2022).
Entries after “also recorded” stand apart in the source; their conditions may differ.

Experiments:
[1] = tested on: dystrophin IRES; conditions: C2C12 cells, pRDEF exon 5-6 IRES construct, increasing concentrations
Procedure: (§1) FIGS. 5A-5F. […] (FIG. 5A) Dual luciferase assay performed on lysates from C2C12 cells transfected with the pRDEF vector carrying the exon 5-6 IRES construct. […] Error bars representate s.d. […] The image intensity for the wild-type lane was lowered to allow identification of bands. MHC=myosin heavy chain (loading control). […] Immunoblot was performed on each muscle in duplicate, and the signals for both dystrophin and α-actinin from the resulting 5 lanes were quantified using ImageJ. […] The signals for both utrophin and α-actinin from the resulting 5 lanes were quantified using ImageJ.
(§2) Furthermore, treatment with the glucocorticoids prednisone and deflazacort are standard treatment for DMD. […] Because utrophin translation may be regulated by corticosteroids and overexpression can compensate for absent dystrophin, we assessed utrophin levels in the same injected muscles (FIG. 5E).

[2] = tested on: utrophin; test: Utrophin immunoblot in mouse muscle; type: in vivo; conditions: Dup2 mice, PDN 1 mg/kg/day treated versus untreated, with or without U7-ACCA
Procedure: as §1, §2

[3] = tested on: Dup2 mice; test: Loss of force following repetitive eccentric contractions; type: in vivo, mouse; conditions: Dup2 TA, 4 weeks; agent alone
[4] = tested on: dystrophin IRES; test: Dual luciferase IRES assay in 293K cells; type: cell-based
From the text: FIGS. 12A-12B. […] Error bars represent s.d. […] N=4 animals per group. Error bars represent s.d.
as §2

[5] = tested on: Dup2 mice; test: Central nucleation of myofibers in Dup2 mouse muscle; type: in vivo; conditions: Dup2 TA, 4 weeks post-injection; agent alone (U7-ACCA 5e11vg IM; PDN 1 mg/kg/day ip); untreated Dup2 73.0±1.6
Procedure: Expression of the IRES-driven isoform improves muscle membrane integrity and protects Dup2 muscle from contraction-induced damage. Dup2 tibialis anterior muscles were treated by intramuscular injection of 5e11vg U7-ACCA alone or with methylprednisolone (PDN: 1 mg/kg/day intraperitoneal) and analyzed at 4 weeks post-injection. […] EBD-positive fibers were quantified as a percent out of a total of 5,000 fibers counted per animal.

[6] = tested on: dystrophin; test: Dystrophin immunoblot in FibroMyoD cells; type: cell-based, human; conditions: Dup2 FibroMyoD cells treated with U7-ACCA and 6.4 μM PDN
[7] = tested on: Dup2 mice; test: Evans blue dye (EBD) uptake / membrane protection assay; type: in vivo, mouse; conditions: Dup2 TA, 4 weeks post-injection; agent alone (U7-ACCA 5e11vg IM; PDN 1 mg/kg/day ip); untreated Dup2 14.7±6.6
From the text: FIGS. 4A-4F. Intramuscular delivery of U7-ACCA results in significant N-truncated dystrophin expression in Dup2 mice, restoring localization of dystrophin-associated proteins. […] In wild type BI6 animals (FIG. 4B), the wild type transcript was 14.2% and Del2 transcript was 85.8%. (FIG. 4C) RNA-Seq read depth using a tibialis anterior muscle total RNA library from Dup2 U7-ACCA treated (upper) and Dup2 untreated (lower) mice, mapped to the 5′ region of the mouse Dmd gene (mm9, chrX:80,150,000-81,050,000). […] The protein induced in BI6 males injected with U7-ACCA is of the same size as that expressed in the Dup2 treated animals, confirming the size difference between this protein and the full-length isoform. (C-terminal antibody: PA1-21011,Thermo, Inc). […]
FIGS. 6A-6E. […] EBD-positive fibers were quantified as a percent out of a total of 5,000 fibers counted per animal.
We examined whether expression of the IRES-driven isoform improved muscle integrity and physiology in the Dup2 mouse. Similar to the case in mdx mice, dystrophic changes in Dup2 mice are quantifiable at 4 weeks of age as widespread muscle regeneration characterized by centralized nuclei (Vulin et al., manuscript in press). […] Quantification of the number of EBD positive fiber confirms that expression of the IRES driven isoform results in protection of muscle fibers in these mice (FIG. 6B). […]

[8] = tested on: Dup2 mice; test: Grip strength; type: in vivo, mouse; conditions: 4 weeks, agent alone, untreated Dup2 2.22±0.26, BI6 3.36±0.37
Procedure: (§3) Dup2 tibialis anterior muscles were treated by intramuscular injection of 5e11vg U7-ACCA alone or with methylprednisolone (PDN: 1 mg/kg/day intraperitoneal) and analyzed at 4 weeks post-injection. […] EBD-positive fibers were quantified as a percent out of a total of 5,000 fibers counted per animal.
(FIG. 17C) Immunostaining of dystrophin on the same samples confirms dystrophin expression and its proper localization at the sarcolemma.

[9] = tested on: Dup2 mice; test: Muscle force following tetanic contraction; type: in vivo, mouse; conditions: Dup2 TA, 4 weeks; agent alone; untreated Dup2 170.9±14.3, BI6 274.0±12.1
Procedure: as §3

[10] = tested on: DMD exon 2; test: RT-PCR of exon 2 skipping in patient-derived FibroMyoD cells; type: cell-based, human
From the text: FIGS. 3A-3D. Out-of-frame exon-skipping stimulates IRES activity in patient-derived cell lines. (FIG. 3A) Schematic representation of the human DMD exon 1-10 reading frame (blue) and 5′UTR (red). Blue numbers above each exon indicate cDNA positions; red numbers at the base of each exon indicate the amino acid position. The canonical actin binding domain 1 is represented, along with the predicted (via ScanProsite) CH and ABS domains. (FIG. 3B) Schematic representation of exon 2 (SEQ ID NO: 30). The selected targeted sequences are indicated below, affecting either splice acceptor (S.A.), splice donor (S.D.), or exon splice enhancer (E.S.E.) sequences (as predicted using Human Splicing Finder or ESE finder 3.0). (FIG. 3C) Two copies each of U7-C and U7-AL were cloned into the same AAV plasmid, as they were the most efficient in skipping exon 2 (see FIGS. 10A-10B). The resulting construct is referred to as U7-ACCA. RT-PCR results after infection of U7-ACCA vector (1E11 vg) or H2A antisense oligonucleotide (AON H2A) into either wt or duplicated exon 2 FibroMyoD (FM) cells. […]
In considering skipping of exons prior to the exon 5 IRES, only the removal of exon 2 will disrupt the reading frame and result in a premature stop codon (FIG. 3A). […]

| Molecule | IRES activity, concentration dependence [1] | utrophin levels [2] | Protection from loss of force following repetitive eccentric contractions [3] | glucocorticoid activation of IRES [4] | Central nucleation (% of myofibers) [5] | dystrophin expression [6] | Evans blue dye (EBD)-positive fibers [7] | Normalized maximum hindlimb grip strength [8] | Normalized specific force following tetanic contraction [9] | exon-skipping (RT-PCR, qualitative) ([10]; control and duplicated exon 2 patient-derived FibroMyoD, 3 days post AAV infection or AON transfection) | transcript lacking exon 2 ([10]; patient cell lines carrying mutation within exon 1 to 4, AAV 1×10E11 vector genomes) |
| --- | --- | --- | --- | --- | --- | --- | --- | --- | --- | --- | --- |
| C[C@H]1C[C@@H]2[C@H]([C@@H](O)C[C@@]3(C)[C@H]2CC[C@]3(O)C(=O)CO)[C@@]2(C)C=CC(=O)C=C12 [PDN, 6-methyl-prednisolone] | increases IRES activity in a dose-dependent fashion | no statistically significant difference; also recorded: does not increase expression of utrophin | No significant difference | not seen | No significant difference | An increase in dystrophin expression | No significant difference | No significant difference | No significant difference | – | – |
| AON H2A: known antisense oligonucleotide CCAUUUUGUGAAUGUUUUCUUUUGAACAUC (SEQ ID NO: 13), positive control of exon 2 skipping (chemistry not given here) | – | – | – | – | – | – | – | – | – | lower efficiency than U7-mediated skipping | approximately 90% |
